Calls of active or inactive are those of the source. No cut-off for these calls is given here.
Key:
[1] = molecular target: T1, 5-hydroxytryptamine receptor 3A (Homo sapiens) (UniProt P46098); experiment: Binding affinity to human 5HT3A receptor in HEK293 cells assessed as cell labeling by confocal microscopy in presence of quipazine; format: cell-based
T1 sequence (whole entry): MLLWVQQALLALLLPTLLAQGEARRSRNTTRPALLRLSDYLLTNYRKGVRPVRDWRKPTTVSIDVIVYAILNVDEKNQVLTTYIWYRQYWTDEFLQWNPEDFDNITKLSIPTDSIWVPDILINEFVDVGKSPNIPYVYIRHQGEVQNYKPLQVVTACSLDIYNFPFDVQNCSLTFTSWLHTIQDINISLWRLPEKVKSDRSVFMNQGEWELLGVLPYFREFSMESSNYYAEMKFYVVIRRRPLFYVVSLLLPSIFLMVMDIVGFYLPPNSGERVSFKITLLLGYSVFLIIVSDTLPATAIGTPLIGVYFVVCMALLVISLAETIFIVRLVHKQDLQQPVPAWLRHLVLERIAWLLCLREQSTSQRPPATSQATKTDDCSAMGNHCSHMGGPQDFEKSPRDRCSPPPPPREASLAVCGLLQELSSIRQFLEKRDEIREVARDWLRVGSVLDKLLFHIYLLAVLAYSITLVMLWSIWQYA

[2] = molecular target: T2, 5-hydroxytryptamine receptor 3A (Homo sapiens, UniProt P46098); experiment: Binding affinity to human 5HT3A receptor in HEK293 cells assessed as cell labeling by confocal microscopy; format: cell-based
T2 sequence (P46098 whole entry): T1 sequence (whole entry)

Activity [1]: Active | Ki [2]: 2.8 nM
SMILES: Cc1cc(C)n2c1C=C1C=CC(NCC(=O)NCCCn3nc(C(=O)N[C@H]4C[C@H]5CCC[C@@H](C4)N5C)c4ccccc43)=[N+]1[B-]2(F)F

From ChEMBL document CHEMBL1157568, “Toward biophysical probes for the 5-HT3 receptor: structure-activity relationship study of granisetron derivatives” (J Med Chem, 2010)
